Converted amounts (≈) assume the structure as drawn.
Legend:
[1] = tested on: Saccharomyces cerevisiae; assay: DNA damaging activity against yeast 1138 mutant assessed as drug level required to produce 12 mm zone of inhibition; format: functional
[2] = tested on: Saccharomyces cerevisiae; assay: DNA damaging activity against yeast 1140 mutant assessed as drug level required to produce 12 mm zone of inhibition; format: functional
[3] = tested on: Saccharomyces cerevisiae; assay: DNA damaging activity against yeast 1353 mutant assessed as drug level required to produce 12 mm zone of inhibition; format: functional
[4] = tested on: Saccharomyces cerevisiae; assay: DNA damaging activity against yeast Sc7 mutant assessed as drug level required to produce 12 mm zone of inhibition; format: functional
[5] = tested on: A2780; assay: Cytotoxicity against human A2780 cells; format: functional, cell-based

Structure (SMILES): C/C=C(/C)C(=O)O[C@H]1[C@H](OC(=O)C=C(C)C)[C@@]2(CO)[C@H](CC1(C)C)C1=CC[C@@H]3[C@@]4(C)CC[C@H](O[C@@H]5O[C@H](C(=O)O)[C@@H](O[C@H]6O[C@H](CO)[C@@H](O)[C@@H]6O)[C@H](O[C@H]6OC[C@@H](O)[C@@H](O)[C@@H]6O)[C@H]5O[C@@H]5O[C@H](CO)[C@@H](O)[C@H](O)[C@H]5O)C(C)(C)[C@@H]4CC[C@@]3(C)[C@]1(C)[C@@H](O)[C@H]2O [PITTOVIRIDOSIDE]
- IC12 [1]: 85 µg/mL
- IC12 [2]: 80 µg/mL
- IC12 [3]: 140 µg/mL
- IC12 [4]: 100 µg/mL
- IC50 [5]: 10.1 µg/mL (≈ 7.93 µM)

From ChEMBL document CHEMBL1159308, “A new triterpene saponin from Pittosporum viridiflorum from the Madagascar rainforest” (J Nat Prod, 2002)
